Measurements as given in patent US8987258B2 (priority 2008, dated 2015).

Target: T1, SIRT1 (Homo sapiens, UniProt Q96EB6)
T1 sequence (Q96EB6 1-747): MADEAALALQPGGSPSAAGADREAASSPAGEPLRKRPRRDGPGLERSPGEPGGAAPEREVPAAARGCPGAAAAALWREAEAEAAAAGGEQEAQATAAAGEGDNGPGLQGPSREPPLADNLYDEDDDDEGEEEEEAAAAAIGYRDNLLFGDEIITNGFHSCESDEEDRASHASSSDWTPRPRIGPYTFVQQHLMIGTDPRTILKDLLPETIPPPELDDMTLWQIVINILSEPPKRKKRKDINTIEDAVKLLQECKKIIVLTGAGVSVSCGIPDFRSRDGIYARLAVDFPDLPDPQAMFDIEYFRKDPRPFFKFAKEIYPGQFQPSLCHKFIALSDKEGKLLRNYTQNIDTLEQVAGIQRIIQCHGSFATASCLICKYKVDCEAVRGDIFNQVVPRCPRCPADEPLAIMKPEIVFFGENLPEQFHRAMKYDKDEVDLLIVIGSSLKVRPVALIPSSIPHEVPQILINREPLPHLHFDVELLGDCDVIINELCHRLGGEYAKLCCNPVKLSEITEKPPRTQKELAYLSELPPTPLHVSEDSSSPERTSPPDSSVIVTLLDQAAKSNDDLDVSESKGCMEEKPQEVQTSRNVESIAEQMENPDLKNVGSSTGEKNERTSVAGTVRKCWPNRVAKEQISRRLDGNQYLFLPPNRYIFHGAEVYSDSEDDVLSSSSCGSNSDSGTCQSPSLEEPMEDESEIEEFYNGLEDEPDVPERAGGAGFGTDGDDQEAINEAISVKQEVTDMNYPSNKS
Assay: Mass spectrometry based SIRT1 deacetylase activation assay
Format: biochemical
Settings: for EC1.5 μM: 0.5 μM peptide substrate, 120 μM βNAD+, 10 nM SIRT1, 25 min, 25° C.; for Emax: 25 min, mass spectrometry assay, read-out: % Fold Act. (percent maximum fold activation)
Description: A mass spectrometry based assay was used to identify modulators of SIRT1 activity. The mass spectrometry based assay utilizes a peptide having 20 amino acid residues as follows: Ac-EE-K(biotin)-GQSTSSHSK(Ac)NleSTEG-K(5TMR)-EE-NH2 (SEQ ID NO: 1) wherein K(Ac) is an acetylated lysine residue and Nle is a norleucine. The peptide is labeled with the fluorophore 5TMR (excitation 540 nm/emission 580 nm) at the C-terminus. The sequence of the peptide substrate is based on p53 with several modifications. In addition, the methionine residue naturally present in the sequence was replaced with the norleucine because the methionine may be susceptible to oxidation during synthesis and purification.
The mass spectrometry assay is conducted as follows: 0.5 μM peptide substrate and 120 μM βNAD^+ is incubated with 10 nM SIRT1 for 25 minutes at 25° C. in a reaction buffer (50 mM Tris-acetate pH 8, 137 mM NaCl, 2.7 mM KCl, 1 mM MgCl2, 5 mM DTT, 0.05% BSA). Test compounds may be added to the reaction as described above. […] After the 25 minute incubation with SIRT1, 10 μL of 10% formic acid is added to stop the reaction. Reactions are sealed and frozen for later mass spec analysis. Determination of the mass of the substrate peptide allows for precise determination of the degree of acetylation (i.e. starting material) as compared to deacetylated peptide (product).
A control for inhibition of sirtuin activity is conducted by adding 1 μL of 500 mM nicotinamide as a negative control at the start of the reaction (e.g., permits determination of maximum sirtuin inhibition). A control for activation of sirtuin activity is conducted using 10 nM of sirtuin protein, with 1 μL of DMSO in place of compound, to determine the amount of deacetylation of the substrate at a given timepoint within the linear range of the assay. This timepoint is the same as that used for test compounds and, within the linear range, the endpoint represents a change in velocity.
For the above assay, SIRT1 protein was expressed and purified as follows. […] The protein was expressed by induction with 1 mM IPTG as an N-terminal His-tag fusion protein at 18° C. overnight and harvested at 30,000×g. Cells were lysed with lysozyme in lysis buffer (50 mM Tris-HCl, 2 mM Tris[2-carboxyethyl]phosphine (TCEP), 10 μM ZnCl2, 200 mM NaCl) and further treated with sonication for 10 min for complete lysis. The protein was purified over a Ni-NTA column (Amersham) and fractions containing pure protein were pooled, concentrated and run over a sizing column (Sephadex S200 26/60 global). The peak containing soluble protein was collected and run on an Ion-exchange column (MonoQ). Gradient elution (200 mM-500 mM NaCl) yielded pure protein. This protein was concentrated and dialyzed against dialysis buffer (20 mM Tris-HCl, 2 mM TCEP) overnight. The protein was aliquoted and frozen at −80° C. until further use.

Row | EC1.5 μM | Emax | SMILES
1 | B (EC1.5 1-25 μM) | < 200% | O=C(Nc1cccc2c(=O)cc(-c3cccc(C(F)(F)F)c3)oc12)c1cccnc1OC[C@@H](O)CO [Compound 246]
2 | B (EC1.5 1-25 μM) | > 200% | O=C(Nc1cccc2c(=O)cc(-c3ccccc3C(F)(F)F)oc12)c1cccc(N2CCCC2)c1 [Compound 312]
3 | A (EC1-5<1.0) | > 200% | O=C(Nc1cccc2c(=O)cc(-c3ccccc3Cl)oc12)c1ncccn1 [Compound 335]
4 | C (EC1.5>25 μM) | < 200% | O=C(Nc1cccc2c(=O)cc(-c3cc(F)ccc3F)oc12)c1cnccn1 [Compound 292]
5 | B (EC1.5 1-25 μM) | > 200% | O=C(Nc1cccc2c(=O)cc(-c3cnccc3C(F)(F)F)oc12)c1cnccn1 [Compound 308]
6 | B (EC1.5 1-25 μM) | > 200% | O=C(Nc1cccc2c(=O)cc(-c3ccccc3C(F)(F)F)oc12)c1cccc(CN2CCOCC2)c1 [Compound 328]
7 | A (EC1-5<1.0) | > 200% | O=C(Nc1cccc2c(=O)cc(-c3ccccc3C(F)(F)F)oc12)c1ccncn1 [Compound 253]
8 | – | < 200% | O=C(Nc1cccc2c(=O)cc(-c3ccc(Br)cc3)oc12)c1cscn1 [Compound 232]
9 | C (EC1.5>25 μM) | < 200% | O=C(Nc1cccc2c(=O)cc(-c3cc(F)ccc3Cl)oc12)c1cscn1 [Compound 301]
10 | B (EC1.5 1-25 μM) | > 200% | O=C(Nc1cccc2c(=O)cc(-c3c(F)cccc3Cl)oc12)c1cscn1 [Compound 297]
11 | A (EC1-5<1.0) | > 200% | O=C(Nc1cccc2c(=O)cc(-c3ccccc3Cl)oc12)c1cccc(CN2CCCC2)n1 [Compound 327]
12 | B (EC1.5 1-25 μM) | < 200% | O=C(Nc1cccc2c(=O)cc(-c3cccc(N4CCOCC4)c3)oc12)c1cnccn1 [Compound 214]
13 | C (EC1.5>25 μM) | < 200% | O=C(Nc1nccs1)c1cccc2c(=O)cc(-c3cccc(C(F)(F)F)c3)oc12 [Compound 206]
14 | B (EC1.5 1-25 μM) | < 200% | O=C(Nc1cccc2c(=O)cc(-c3cccc(F)c3F)oc12)c1cnccn1 [Compound 288]
15 | C (EC1.5>25 μM) | < 200% | O=C(Nc1cccc2c(=O)cc(-c3cc(F)ccc3F)oc12)c1cscn1 [Compound 293]
16 | C (EC1.5>25 μM) | < 200% | Cc1cnc(NC(=O)c2cccc3c(=O)cc(-c4ccccc4S(C)(=O)=O)oc23)s1 [Compound 304]
17 | A (EC1-5<1.0) | > 200% | Cc1ccccc1-c1cc(=O)c2cccc(NC(=O)c3cnccn3)c2o1 [Compound 273, N-(4-oxo-2-o-tolyl-4H-chromen-8-yl)pyrazine-2-carboxamide]
18 | A (EC1-5<1.0) | > 200% | O=C(Nc1cccc2c(=O)cc(-c3ccccc3Cl)oc12)c1cccc(N2CCCC2)n1 [Compound 325]
19 | C (EC1.5>25 μM) | < 200% | Cc1cnc(NC(=O)c2cccc3c(=O)cc(-c4ccccn4)oc23)s1 [Compound 238]
20 | A (EC1-5<1.0) | > 200% | O=C(Nc1cccc2c(=O)cc(-c3ccccc3OC(F)(F)F)oc12)c1cnccn1 [Compound 234]
21 | C (EC1.5>25 μM) | < 200% | O=C(Nc1cccc2c(=O)cc(-c3cccnc3)oc12)c1ccccn1 [Compound 216]
22 | C (EC1.5>25 μM) | < 200% | Cc1cnc(NC(=O)c2cccc3c(=O)cc(-c4ccccc4Cl)oc23)s1 [Compound 270]

Row | EC1.5 μM | Emax | SMILES
23 | B (EC1.5 1-25 μM) | > 200% | O=C(Nc1cccc2c(=O)cc(-c3ccccc3C(F)(F)F)oc12)c1cncs1 [Compound 267]
24 | A (EC1-5<1.0) | > 200% | CC(C)c1ccccc1-c1cc(=O)c2cccc(NC(=O)c3cnccn3)c2o1 [Compound 286]
25 | A (EC1-5<1.0) | > 200% | O=C(Nc1cccc2c(=O)cc(-c3ccccc3C(F)(F)F)oc12)c1ncccn1 [Compound 252]
26 | C (EC1.5>25 μM) | < 200% | O=C(Nc1cccc2c(=O)cc(-c3cccc(OC(F)(F)F)c3)oc12)c1cscn1 [Compound 202]
27 | C (EC1.5>25 μM) | < 200% | O=C(Nc1cccc2c(=O)cc(-c3ccccc3F)oc12)c1cnccn1 [Compound 278]
28 | C (EC1.5>25 μM) | < 200% | Cc1cnc(NC(=O)c2cccc3c(=O)cc(-c4ccccc4C(F)F)oc23)s1 [Compound 284]
29 | C (EC1.5>25 μM) | < 200% | CS(=O)(=O)c1ccc(-c2cc(=O)c3cccc(NC(=O)c4ccccn4)c3o2)cc1 [Compound 249]
30 | B (EC1.5 1-25 μM) | > 200% | O=C(Nc1cccc2c(=O)cc(-c3ccccc3Cl)oc12)c1cccc(N2CCOCC2)c1 [Compound 336]
31 | B (EC1.5 1-25 μM) | < 200% | CN1CCCC1C(=O)Nc1cccc2c(=O)cc(-c3ccccc3C(F)(F)F)oc12 (stereo not drawn) [Compound 317]
32 | C (EC1.5>25 μM) | < 200% | O=C(Nc1cccc2c(=O)cc(-c3ccccc3)oc12)c1cnccn1 [Compound 201]
33 | B (EC1.5 1-25 μM) | < 200% | O=C(Nc1cccc2c(=O)cc(-c3cccc(F)c3Cl)oc12)c1cnccn1 [Compound 298]
34 | C (EC1.5>25 μM) | < 200% | Cc1cnc(NC(=O)c2cccc3c(=O)cc(-c4cccc(C(F)(F)F)c4)oc23)s1 [Compound 235]
35 | C (EC1.5>25 μM) | < 200% | O=C(Nc1cccc2c(=O)cc(-c3cccc(F)c3Cl)oc12)c1cscn1 [Compound 299]
36 | C (EC1.5>25 μM) | < 200% | O=C(Nc1cccc2c(=O)cc(-c3cccc(N4CCOCC4)c3)oc12)c1ccccn1 [Compound 213]
37 | B (EC1.5 1-25 μM) | > 200% | O=C(Nc1cccc2c(=O)cc(-c3ccccc3C(F)(F)F)oc12)c1cccc(N2CCOCC2)c1 [Compound 311]
38 | C (EC1.5>25 μM) | < 200% | O=C(Nc1ccccn1)c1cccc2c(=O)cc(-c3cccc(OC(F)(F)F)c3)oc12 [Compound 211]
39 | A (EC1-5<1.0) | > 200% | O=C(Nc1cccc2c(=O)cc(-c3ccccc3C(F)F)oc12)c1cccc(CN2CCOCC2)n1 [Compound 339]
40 | C (EC1.5>25 μM) | < 200% | CS(=O)(=O)c1ccccc1-c1cc(=O)c2cccc(NC(=O)c3cnccn3)c2o1 [Compound 265]
41 | A (EC1-5<1.0) | > 200% | O=C(Nc1cccc2c(=O)cc(-c3c(F)cccc3Cl)oc12)c1cnccn1 [Compound 296]
42 | – | < 200% | Cc1cnc(NC(=O)c2cccc3c(=O)cc(-c4ccc(Br)cc4)oc23)s1 [Compound 223]
43 | C (EC1.5>25 μM) | < 200% | O=C(Nc1nccs1)c1cccc2c(=O)cc(-c3cccc(OC(F)(F)F)c3)oc12 [Compound 210]
